Target: T1, recombinant human TrkA (Homo sapiens, UniProt P04629)
T1 construct: 6HIS tagged cytoplasmic domain from Invitrogen, Catalog No. PV3144; purchased Invitrogen PV3144
Assay: TrkA LanthaScreen Eu Kinase Binding Assay
Settings: averaged IC50; TR-FRET binding assay, 60 min at 22° C.; read-out: TrkA Enzyme IC50
Procedure: TrkA binding activity was determined in a TrkA LanthaScreen™ Eu Kinase Binding Assay. 5 nM His-tagged recombinant human TrkA (6HIS tagged cytoplasmic domain from Invitrogen, Catalog No. PV3144) was incubated with 4 nM Alexa-Fluor® Tracer 236 (Invitrogen Cat. No. PV5592), 2 nM biotinylated anti-His (Invitrogen Cat. No. PV6090), and 2 nM europium-labeled Streptavidin (Invitrogen Cat. No. PV5899), in buffer (25 mM MOPS, pH 7.5, 5 mM MgCl2, 0.005% Triton X-100). Three fold serial dilutions of compounds of the invention in DMSO were added to a final percentage of 2% DMSO. After 60-minute incubation at 22° C., the reaction was measured using the EnVision multimode plate reader (PerkinElmer) via TR-FRET dual wavelength detection at […]. The percent of control was calculated using a ratiometric emission factor. The IC50 values were determined by fitting a four parameter model to the percent of control data.
Table A provides averaged IC50 values for compounds of the invention when tested in the assay of Example A, where A represents an averaged IC50 value <100 nM; and B represents an averaged IC50 value from 100 to 1,000 nM.

T1 sequence (P04629 440-796 limits assumed): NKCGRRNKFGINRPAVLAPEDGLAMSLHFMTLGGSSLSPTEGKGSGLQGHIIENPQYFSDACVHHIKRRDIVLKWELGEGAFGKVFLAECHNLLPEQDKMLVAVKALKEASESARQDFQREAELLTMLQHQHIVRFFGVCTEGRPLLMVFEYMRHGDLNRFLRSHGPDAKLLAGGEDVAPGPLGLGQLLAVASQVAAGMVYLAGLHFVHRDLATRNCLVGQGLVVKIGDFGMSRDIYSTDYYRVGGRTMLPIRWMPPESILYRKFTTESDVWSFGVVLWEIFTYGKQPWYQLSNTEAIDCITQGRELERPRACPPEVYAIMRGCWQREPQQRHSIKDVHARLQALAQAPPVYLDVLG

SMILES | IC50 [nM]
CCOc1nn(-c2ccccc2)c(NC(=O)Nc2c(-c3ccccc3)nc3c(C)nccn23)c1C [Example 2, 1-(3-ethoxy-4-methyl-1-phenyl-1H-pyrazol-5-yl)-3-(8-methyl-2-phenylimidazo[1,2-a]pyrazin-3-yl)urea] | < 100
COc1ccc(-c2nc3c(C)cccn3c2NC(=O)Nc2c3c(nn2-c2ccccc2)CS(=O)(=O)C3)cc1 [Example 24, 1-(5,5-dioxido-2-phenyl-4,6-dihydro-2H-thieno[3,4-c]pyrazol-3-yl)-3-(2-(4-methoxyphenyl)-8-methylimidazo[1,2-a]pyridin-3-yl)urea] | 100 to 1000
COC[C@@H](O)COc1nn(-c2ccccc2)c(NC(=O)Nc2c(-c3ccccc3)nc3c(C(F)(F)F)cccn23)c1C [Example 35, (R)-1-(3-(2-hydroxy-3-methoxypropoxy)-4-methyl-1-phenyl-1H-pyrazol-5-yl)-3-(2-phenyl-8-(trifluoromethyl)imidazo[1,2-a]pyridin-3-yl)urea] | 100 to 1000
CCOc1nn(-c2ccccc2)c(NC(=O)Nc2c(-c3ccccc3)nc3c(F)cccn23)c1C [Example 6, 1-(3-ethoxy-4-methyl-1-phenyl-1H-pyrazol-5-yl)-3-(8-fluoro-2-phenylimidazo[1,2-a]pyridin-3-yl)urea] | 100 to 1000
Cc1nn(-c2ccccc2)c(NC(=O)Nc2c(-c3ccccc3)nc3c(C)nccn23)c1C [Example 8, 1-(3,4-dimethyl-1-phenyl-1H-pyrazol-5-yl)-3-(8-methyl-2-phenylimidazo[1,2-a]pyrazin-3-yl)urea] | < 100
Cc1cccn2c(NC(=O)Nc3c4c(nn3-c3ccccc3)CCCC4)c(-c3ccccc3)nc12 [Example 19, 1-(8-methyl-2-phenylimidazo[1,2-a]pyridin-3-yl)-3-(2-phenyl-4,5,6,7-tetrahydro-2H-indazol-3-yl)urea] | < 100
Cc1nccn2c(NC(=O)Nc3c4c(nn3-c3ccccc3)CCC4)c(-c3ccccc3)nc12 [Example 1, 1-(8-methyl-2-phenylimidazo[1,2-a]pyrazin-3-yl)-3-(2-phenyl-2,4,5,6-tetrahydrocyclopenta[c]pyrazol-3-yl)urea] | < 100
Cc1ccc(NC(=O)Nc2c(-c3ccccc3)nc3c(C)nccn23)c(-c2ccccc2)n1 [Example 9, 1-(8-methyl-2-phenylimidazo[1,2-a]pyrazin-3-yl)-3-(6-methyl-2-phenylpyridin-3-yl)urea] | 100 to 1000
O=C(Nc1c2c(nn1-c1ccccc1)CCCC2)Nc1c(-c2ccccc2)nc2c(C(F)(F)F)cccn12 [Example 20, 1-(2-phenyl-4,5,6,7-tetrahydro-2H-indazol-3-yl)-3-(2-phenyl-8-(trifluoromethyl)imidazo[1,2-a]pyridin-3-yl)urea] | < 100
CCOc1nn(-c2ccccc2)c(NC(=O)Nc2c(-c3ccccc3)nc3c(Cl)cccn23)c1C [Example 4, 1-(8-chloro-2-phenylimidazo[1,2-a]pyridin-3-yl)-3-(3-ethoxy-4-methyl-1-phenyl-1H-pyrazol-5-yl)urea] | < 100
Cc1c(OC[C@H](C)O)nn(-c2ccccc2)c1NC(=O)Nc1c(-c2ccccc2)nc2c(C)cccn12 [Example 11, (S)-1-(3-(2-hydroxypropoxy)-4-methyl-1-phenyl-1H-pyrazol-5-yl)-3-(8-methyl-2-phenylimidazo[1,2-a]pyridin-3-yl)urea] | 100 to 1000
Cc1c(OC[C@H](O)CO)nn(-c2ccccc2)c1NC(=O)Nc1c(-c2ccccc2)nc2c(C)cccn12 [Example 10, (R)-1-(3-(2,3-dihydroxypropoxy)-4-methyl-1-phenyl-1H-pyrazol-5-yl)-3-(8-methyl-2-phenylimidazo[1,2-a]pyridin-3-yl)urea] | 100 to 1000
Cc1c(OC[C@@H](C)O)nn(-c2ccccc2)c1NC(=O)Nc1c(-c2ccccc2)nc2c(C(F)(F)F)cccn12 [Example 27, (R)-1-(3-(2-hydroxypropoxy)-4-methyl-1-phenyl-1H-pyrazol-5-yl)-3-(2-phenyl-8-(trifluoromethyl)imidazo[1,2-a]pyridin-3-yl)urea] | < 100
Cc1cccn2c(NC(=O)Nc3c4c(nn3-c3ccccc3)CCC4)c(-c3ccccc3)nc12 [Example 12, 1-(8-methyl-2-phenylimidazo[1,2-a]pyridin-3-yl)-3-(2-phenyl-2,4,5,6-tetrahydrocyclopenta[c]pyrazol-3-yl)urea] | < 100
Cc1c(OC[C@H](O)CO)nn(-c2ccccc2)c1NC(=O)Nc1c(-c2ccccc2)nc2c(C(F)(F)F)cccn12 [Example 28, (R)-1-(3-(2,3-dihydroxypropoxy)-4-methyl-1-phenyl-1H-pyrazol-5-yl)-3-(2-phenyl-8-(trifluoromethyl)imidazo[1,2-a]pyridin-3-yl)urea] | < 100
CCOc1nn(-c2ccccc2)c(NC(=O)Nc2c(-c3ccccc3)nn3ccccc23)c1C [Example 39, 1-(3-ethoxy-4-methyl-1-phenyl-1H-pyrazol-5-yl)-3-(2-phenylpyrazolo[1,5-a]pyridin-3-yl)urea] | 100 to 1000
CCOc1nn(-c2ccccc2)c(NC(=O)Nc2c(-c3ccccc3)nc3ccccn23)c1C [Example 5, 1-(3-ethoxy-4-methyl-1-phenyl-1H-pyrazol-5-yl)-3-(2-phenylimidazo[1,2-a]pyridin-3-yl)urea] | 100 to 1000
CCOc1nn(-c2ccccc2)c(NC(=O)Nc2c(-c3ccccc3)nc3c(Br)cccn23)c1C [Example 15, 1-(8-bromo-2-phenylimidazo[1,2-a]pyridin-3-yl)-3-(3-ethoxy-4-methyl-1-phenyl-1H-pyrazol-5-yl)urea] | < 100
O=C(Nc1c2c(nn1-c1ccccc1)CS(=O)(=O)C2)Nc1c(-c2ccccc2)nc2c(C(F)(F)F)cccn12 [Example 18, 1-(5,5-dioxido-2-phenyl-4,6-dihydro-2H-thieno[3,4-c]pyrazol-3-yl)-3-(2-phenyl-8-(trifluoromethyl)imidazo[1,2-a]pyridin-3-yl)urea] | < 100
Cc1c(OCC(C)(C)O)nn(-c2ccccc2)c1NC(=O)Nc1c(-c2ccccc2)nc2c(C(F)(F)F)cccn12 [Example 26, 1-(3-(2-hydroxy-2-methylpropoxy)-4-methyl-1-phenyl-1H-pyrazol-5-yl)-3-(2-phenyl-8-(trifluoromethyl)imidazo[1,2-a]pyridin-3-yl)urea] | < 100
CCOc1nn(-c2ccccc2)c(NC(=O)Nc2c(-c3ccccc3)nc3c(C)cccn23)c1C [Example 7, 1-(3-ethoxy-4-methyl-1-phenyl-1H-pyrazol-5-yl)-3-(8-methyl-2-phenylimidazo[1,2-a]pyridin-3-yl)urea] | < 100
Cc1c(OCC(CO)CO)nn(-c2ccccc2)c1NC(=O)Nc1c(-c2ccccc2)nc2c(C(F)(F)F)cccn12 [Example 25, 1-(3-(3-hydroxy-2-(hydroxymethyl)propoxy)-4-methyl-1-phenyl-1H-pyrazol-5-yl)-3-(2-phenyl-8-(trifluoromethyl)imidazo[1,2-a]pyridin-3-yl)urea] | < 100
COC[C@H](O)COc1nn(-c2ccccc2)c(NC(=O)Nc2c(-c3ccccc3)nc3c(C(F)(F)F)cccn23)c1C [Example 36, (S)-1-(3-(2-hydroxy-3-methoxypropoxy)-4-methyl-1-phenyl-1H-pyrazol-5-yl)-3-(2-phenyl-8-(trifluoromethyl)imidazo[1,2-a]pyridin-3-yl)urea] | < 100

Reference: patent US9822118B2, “Bicyclic heteroaryl urea, thiourea, guanidine and cyanoguanidine compounds as TrkA kinase inhibitors” (Array BioPharma Inc., priority 2012, dated 2017)
